Results published in patent publication US20260285850A1, “SUBSTITUTED OXAZOLIDINONES AND IMIDAZOLINONES AS HERBICIDES” (FMC CORPORATION, priority 2023, published 2026).

How the values were obtained:
Type in all cases: in vivo
[1] = tested on: barnyardgrass (Echinochloa crus-galli); test: Test A preemergence soil spray, visual injury rating 0-100; details: 10 days
In short: (§1)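 Plants in a loam and sand soil blend were treated with each test chemical, in a non-phytotoxic solvent system including surfactant, either sprayed on seeded soil before emergence or applied after emergence at the one- to two-leaf stage. Ten days later in the greenhouse, plants were compared with untreated controls and visually rated from 0 (no effect) to 100 (complete control).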

[2] = tested on: blackgrass (Alopecurus myosuroides); test: as above; details: 10 days
In short: as §1

corn (Zea mays) [3] = test: as above; details: 10 days
In short: as §1

[4] = tested on: green foxtail (Setaria viridis); test: as above; details: 10 days
In short: as §1

kochia (Bassia scoparia) [5] = test: as above; details: 62 g ai/ha, 10 days, 0 = no effect, 100 = complete control
In short: as §1

[6] = tested on: oat, wild (wild oat, Avena fatua); test: as above; details: 10 days
In short: as §1

[7] = tested on: palmer (palmer amaranth, palmer pigweed, Amaranthus palmeri); test: as above; details: 10 days
In short: as §1

[8] = tested on: ragweed (common ragweed, Ambrosia artemisiifolia); test: as above; details: 10 days
In short: as §1

[9] = tested on: ryegrass, Italian (italian ryegrass, Lolium multiflorum); test: as above; details: 10 days
In short: as §1

soybean (Glycine max) [10] = test: as above; details: 10 days
In short: as §1

[11] = tested on: wheat (Triticum aestivum); test: as above; details: 10 days
In short: as §1

[12] = tested on: barnyardgrass (Echinochloa crus-galli); test: Test A postemergence application, visual injury rating 0-100
In short: as §1

[13] = tested on: blackgrass (Alopecurus myosuroides); test: as above
In short: as §1

corn (Zea mays) [14] = test: as above
In short: as §1

[15] = tested on: galium (catchweed bedstraw, Galium aparine); test: as above
In short: as §1

[16] = tested on: green foxtail (Setaria viridis); test: as above
In short: as §1

[17] = tested on: horseweed (Erigeron canadensis); test: as above
In short: as §1

kochia (Bassia scoparia) [18] = test: as above
In short: as §1

[19] = tested on: oat, wild (wild oat, Avena fatua); test: as above
In short: as §1

[20] = tested on: palmer (palmer amaranth, palmer pigweed, Amaranthus palmeri); test: as above
In short: as §1

[21] = tested on: ragweed (common ragweed, Ambrosia artemisiifolia); test: as above
In short: as §1

[22] = tested on: ryegrass, Italian (italian ryegrass, Lolium multiflorum); test: as above
In short: as §1

soybean (Glycine max) [23] = test: as above
In short: as §1

[24] = tested on: wheat (Triticum aestivum); test: as above
In short: as §1

[25] = tested on: barnyardgrass (Echinochloa crusgalli); test: Test B flooded paddy test, visual plant response rating 0-100; details: 250 g ai/ha, Flood, applied to paddy water, evaluated after 13 days
In short: (§2)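 2-leaf plants; flood 3 cm over soil; compound dosed into paddy water; depth kept constant; greenhouse 13 d; visual scoring vs controls. Dash = no result.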

[26] = tested on: ducksalad (Heteranthera limosa); test: as above; details: 250 g ai/ha, Flood, applied to paddy water, evaluated after 13 days
In short: as §2

rice (Oryza sativa) = test: as above; details: 250 g ai/ha, Flood, applied to paddy water, evaluated after 13 days
In short: as §2

[27] = tested on: sedge, umbrella (small-flower umbrella sedge, Cyperus difformis); test: as above; details: 250 g ai/ha, Flood, applied to paddy water, evaluated after 13 days
In short: as §2

[28] = 62 g ai/ha, 0 = no effect, 100 = complete control
[29] = 62 g ai/ha, postemergence, 10 days, 0 = no effect, 100 = complete control
[30] = Postemergence, 16 g ai/ha, greenhouse 10 days, 0 no effect, 100 complete control

COC(=O)C1=CCC(NC(=O)C2(C)CN(c3cc(Cl)c(F)c(Cl)c3)C(=O)O2)C1 (stereo not drawn) [Compound 129]
100: Barnyardgrass plant response rating (0-100) [12, 29] | Corn plant response rating (0-100) (corn (Zea mays) [14]; [29])
70: Corn plant response rating (0 to 100 scale) (corn (Zea mays) [14]; [30]) | Galium plant response rating (0 to 100 scale) [15, 30] | Pigweed, Palmer plant response rating (0-100) [20, 29] | Soybean plant response rating (0-100) (soybean (Glycine max) [23]; [29]) | Plant response rating, Ducksalad (0 to 100 scale, 0 is no effect and 100 is complete control) [26]
40: Ryegrass, Italian plant response rating (0-100) [9, 28] | Blackgrass plant response rating (0-100) [13, 29] | Plant response rating, Rice (0 to 100 scale, 0 is no effect and 100 is complete control) (rice (Oryza sativa))
10: Oat, Wild plant response rating (0 to 100 scale) [19, 30] | Wheat plant response rating (0 to 100 scale) [24, 30]
0: Barnyardgrass plant response rating ([1]; 16 g ai/ha, 0 to 100 scale) | Blackgrass plant response rating ([2]; 16 g ai/ha, 0 to 100 scale) | Blackgrass plant response rating (0-100) [2, 28] | Corn plant response rating (corn (Zea mays) [3]; 16 g ai/ha, 0 to 100 scale) | Foxtail, Green plant response rating ([4]; 16 g ai/ha, 0 to 100 scale) | Foxtail, Green plant response rating (0-100) [4, 28] | Kochia plant response rating (0-100) (kochia (Bassia scoparia) [5]) | Oat, Wild plant response rating ([6]; 16 g ai/ha, 0 to 100 scale) | Oat, Wild plant response rating (0-100) [6, 28] | Pigweed, Palmer plant response rating ([7]; 16 g ai/ha, 0 to 100 scale) | Ragweed plant response rating ([8]; 16 g ai/ha, 0 to 100 scale) | Ragweed plant response rating (0-100) [8, 28] | Ryegrass, Italian plant response rating ([9]; 16 g ai/ha, 0 to 100 scale) | Soybean plant response rating (soybean (Glycine max) [10]; 16 g ai/ha, 0 to 100 scale) | Soybean plant response rating (0-100) (soybean (Glycine max) [10]; [28]) | Wheat plant response rating ([11]; 16 g ai/ha, 0 to 100 scale) | Horseweed plant response rating (0 to 100 scale) [17, 30] | Ragweed plant response rating (0 to 100 scale) [21, 30]
50: Kochia plant response rating (0 to 100 scale) (kochia (Bassia scoparia) [18]; [30]) | Pigweed, Palmer plant response rating (0 to 100 scale) [20, 30] | Plant response rating, Barnyardgrass (0 to 100 scale, 0 is no effect and 100 is complete control) [25]
20: Pigweed, Palmer plant response rating (0-100) [7, 28] | Wheat plant response rating (0-100) [11, 28] | Blackgrass plant response rating (0 to 100 scale) [13, 30] | Foxtail, Green plant response rating (0 to 100 scale) [16, 30] | Oat, Wild plant response rating (0-100) [19, 29] | Soybean plant response rating (0 to 100 scale) (soybean (Glycine max) [23]; [30])
80: Barnyardgrass plant response rating (0 to 100 scale) [12, 30] | Galium plant response rating (0-100) [15, 29] | Kochia plant response rating (0-100) (kochia (Bassia scoparia) [18]; [29]) | Wheat plant response rating (0-100) [24, 29]
90: Foxtail, Green plant response rating (0-100) [16, 29] | Plant response rating, Sedge, Umbrella (0 to 100 scale, 0 is no effect and 100 is complete control) [27]
30: Barnyardgrass plant response rating (0-100) [1, 28] | Corn plant response rating (0-100) (corn (Zea mays) [3]; [28]) | Ragweed plant response rating (0-100) [21, 29] | Ryegrass, Italian plant response rating (0 to 100 scale) [22, 30]
60: Horseweed plant response rating (0-100) [17, 29] | Ryegrass, Italian plant response rating (0-100) [22, 29]
